Experimental data as given in patent US7507727B2, “Substituted quinobenzoxazine analogs and methods of using thereof” (Cylene Pharmaceuticals, Inc., priority 2003, dated 2009).

Each molecule was assayed against c-Myc template DNA (c-myc quadruplex) (assay: Quadruplex binding / stop assay (Taq polymerase arrest, capillary electrophoresis)). Conditions: read-out: S DATA; Table 1D, stop assay data.
Text: A high throughput polymerase arrest assay has been developed. The assay comprises contacting a template nucleic acid, often DNA, with a primer, which also is often DNA; contacting the primer/template complex with a compound described herein (also referred to as a “test compound”); contacting the primer/template complex with a polymerase; and separating reaction products. The assay often includes the step of denaturing the primer/template complex mixture and then renaturing the complex, which often is carried out before a test molecule is added to the system. Multiple assays often are carried out using varying concentrations of a test compound, such that an IC50 value can be obtained, for example. The reaction products often include extended primers of different lengths.
Thus, the reaction mixture often includes at least two reaction products when a test compound interacts with a quadruplex structure in the template, one having a completely extended primer and one having an incompletely extended primer, and these two reaction products are separated. The products may be separated using any convenient separation method, such as mass spectrometry and in one embodiment, capillary electrophoresis.
In an embodiment, a primer oligonucleotide covalently linked to a fluorescent label is contacted with template DNA. The resulting complex is contacted with a test molecule and then contacted with a polymerase capable of extending the primer. The reaction products then are separated and detected by capillary electrophoresis. A longer primer sequence was used for practicing this embodiment as compared to embodiments where the primer includes no covalently-linked fluorophore or where capillary electrophoresis is not utilized for separation. Deoxynucleotides are added at any stage of the assay before the separation, often when the primer is contacted with the template DNA. The template DNA/primer complex often is denatured (e.g., by increasing the temperature of the system) and then renatured (e.g., by cooling the system) before a test compound is added).
The mixture was denatured at 95° C. for 5 minutes and, after cooling down to room temperature, was incubated at 37° C. for 15 minutes.
After cooling down to room temperature, 1 mM KCl and the test compound (various concentrations) were added and the mixture incubated for 15 minutes at room temperature. The primer extension was performed by adding 10 mM KCl and Taq DNA Polymerase (2.5 U/reaction, Promega) and incubating at 70° C. for 30 minutes. The reaction was stopped by adding 1 μl of the reaction mixture to 10 μl Hi-Di Formamide mixed and 0.25 μl LIZ120 size standard. Hi-Di Formamide and LIZ120 size standard were purchased from Applied Biosystems.
The partially extended quadruplex arrest product was between 61 or 62 bases long and the full-length extended product was 99 bases long. The products were separated and analyzed using capillary electrophoresis. Capillary electrophoresis was performed using an ABI PRISM 3100-Avant Genetic Analyzer.
Stop Assays. […] A fluorescently labeled primer DNA is then annealed to the 3′ end of the template DNA. A DNA polymerase such as Taq polymerase is then introduced to synthesize a complementary strand of DNA by extending from the fluorescently labeled primer. When the progress of the Taq polymerase is unhindered, it synthesizes a full-length copy of the template.
These products are visualized by capillary electrophoresis.

Row | SMILES | IC50 [µM]
1 | COc1ccc(CCNc2c(F)cc3c(=O)c(C(=O)NCCC4CCCN4C)cn4c3c2Oc2cc3ccccc3cc2-4)cc1OC (stereo not drawn) [compound 1757] | 9.8
2 | CCN(CC)CCCC(C)NC(=O)c1cn2c3c(c(NCCc4ccc(OC)c(OC)c4)c(F)cc3c1=O)Oc1cc3ccccc3cc1-2 (stereo not drawn) [compound 1758] | 9.4
3 | COc1ccc(CCNc2c(F)cc3c(=O)c(C(=O)N(C)CCc4ccccn4)cn4c3c2Oc2cc3ccccc3cc2-4)cc1OC [compound 1759] | 10
4 | CN1CCCC1CCNC(=O)c1cn2c3c(c(SCCc4cnccn4)c(F)cc3c1=O)Oc1cc3ccccc3cc1-2 (stereo not drawn) [compound 1760] | 1.85
5 | CN1CCCC1CCNC(=O)c1cn2c3c(c(-n4cncc4-c4cnccn4)c(F)cc3c1=O)Oc1cc3ccccc3cc1-2 (stereo not drawn) [compound 1761] | 1.75
6 | CN1CCC[C@H]1CCNC(=O)c1cn2c3c(c(N4CCC(c5cnccn5)C4)c(F)cc3c1=O)Oc1ccccc1-2 (stereo partly drawn) [compound 1762] | 5.7
7 | CN1CCCC1CCNC(=O)c1cn2c3c(c(N4CCC(c5cnccn5)C4)c(F)cc3c1=O)Oc1ccc(Cl)cc1-2 (stereo not drawn) [compound 1764] | 4.8
8 | CN1CCCC1CCNC(=O)c1cn2c3c(c(N4CCC(c5cnccn5)C4)c(F)cc3c1=O)Oc1cc(Cl)ccc1-2 (stereo not drawn) [compound 1765] | 3.6
9 | C[N+]1([O-])CCC[C@@H]1CCNC(=O)c1cn2c3c(c(N4CCC(c5cnccn5)C4)c(F)cc3c1=O)Oc1cc3ccccc3cc1-2 (stereo partly drawn) [compound 1766] | 6.3
10 | O=C(NCCN1CCCC1)c1cn2c3c(c(SCCc4cnccn4)c(F)cc3c1=O)Oc1cc3ccccc3cc1-2 [compound 1767] | 3.2
11 | CN1CCCC1CCNC(=O)c1cn2c3c(c(S(=O)(=O)CCc4cnccn4)c(F)cc3c1=O)Oc1cc3ccccc3cc1-2 (stereo not drawn) [compound 1768] | 0.92
12 | CN1CCCC1CCNC(=O)c1cn2c3c(c([S+]([O-])CCc4cnccn4)c(F)cc3c1=O)Oc1cc3ccccc3cc1-2 (stereo not drawn) [compound 1769] | 10
13 | CN1CCC[C@H]1CCNC(=O)c1cn2c3c(c(SCCc4cnccn4)c(F)cc3c1=O)Oc1cc3ccccc3cc1-2 [compound 1770] | 4.7
14 | CN1CCCC1CCNC(=O)c1cn2c3c(c(N4CCC(c5ccccc5F)C4)c(F)cc3c1=O)Oc1cc3ccccc3cc1-2 (stereo not drawn) [compound 1771] | 10
15 | O=c1c2cn3c4ccccc4oc4c(N5CCC(c6cnccn6)C5)c(F)cc(c2nn1CCN1CCCC1)c43 (stereo not drawn) [compound 1772] | 14.1
16 | CN1CCCC1CCNC(=O)c1cn2c3c(c(N4CCC(c5cnccn5)C4)c(F)cc3c1=O)Oc1ccc(C(N)=O)cc1-2 (stereo not drawn) [compound 1773] | 6.1
17 | CN1CCCC1CCNC(=O)c1cn2c3c(c(SCCc4cnccn4)c(SCCc4cnccn4)cc3c1=O)Oc1cc3ccccc3cc1-2 (stereo not drawn) [compound 1774] | 5.8
18 | CCOC(=O)c1cn2c3c(c(N4CCC(c5cnccn5)C4)c(F)cc3c1=O)Oc1ccc(C#N)cc1-2 (stereo not drawn) [compound 1775] | > 15
19 | CN1CCCC1CCNC(=O)c1cn2c3c(c(N4CCC(c5cnccn5)C4)c(F)cc3c1=O)Oc1ccc(C#N)cc1-2 (stereo not drawn) [compound 1776] | 6.8
20 | CN1CCCC1CCNC(=O)c1cn2c3c(c(N4CCC(c5cnccn5)C4)c(F)cc3c1=O)Oc1ccc(C#N)cc1-2 (stereo not drawn) [compound 1777] | 6.8
21 | N#Cc1ccc2c(c1)-n1cc(C(=O)NCCN3CCCC3)c(=O)c3cc(F)c(N4CCC(c5cnccn5)C4)c(c31)O2 (stereo not drawn) [compound 1778] | 2.9
22 | CN1CCCC1CCNC(=O)c1cn2c3c(c(SCCc4cnccn4)c(F)cc3c1=O)Oc1ccccc1-2 (stereo not drawn) [compound 1779] | > 15
23 | CN1CCCC1CCNC(=O)c1cn2c3c(c(SCCc4cnccn4)c(F)cc3c1=O)Oc1c-2ccc2ccccc12 (stereo not drawn) [compound 1780] | 5.2
24 | CN1CCCC1CCNC(=O)c1cn2c3c(c(SCCc4ccccn4)c(F)cc3c1=O)Oc1cc3ccccc3cc1-2 (stereo not drawn) [compound 1781] | 5.5

Row | SMILES | IC50 [µM]
25 | O=C(NCCN1CCCC1)c1cn2c3c(c(SCCc4cnccn4)c(F)cc3c1=O)Oc1ccc(Cl)cc1-2 [compound 1783] | > 15
26 | O=C(NCCN1CCCC1)c1cn2c3c(c(SCCc4cnccn4)c(F)cc3c1=O)Oc1cc(Cl)ccc1-2 [compound 1784] | > 15
27 | O=C(NCCN1CCCC1)c1cn2c3c(c(SCCc4cnccn4)c(F)cc3c1=O)Oc1ccccc1-2 [compound 1785] | > 15
28 | O=C(NCCN1CCCC1)c1cn2c3c(c(SCCc4cnccn4)c(F)cc3c1=O)Oc1cccnc1-2 [compound 1786] | > 15
29 | CN1CCCC1CCNC(=O)c1cn2c3c(c(SCCc4cnccn4)c(F)cc3c1=O)Oc1ccc(Cl)cc1-2 (stereo not drawn) [compound 1787] | > 15
30 | O=C(NCCN1CCOCC1)c1cn2c3c(c(SCCc4cnccn4)c(F)cc3c1=O)Oc1cc(Cl)ccc1-2 [compound 1788] | > 15
31 | O=C(NCCN1CCOCC1)c1cn2c3c(c(N4CCC(c5cnccn5)C4)c(F)cc3c1=O)Oc1ccc(Cl)cc1-2 (stereo not drawn) [compound 1789] | > 15
32 | O=C(NCCN1CCOCC1)c1cn2c3c(c(N4CCC(c5cnccn5)C4)c(F)cc3c1=O)Oc1cc(Cl)ccc1-2 (stereo not drawn) [compound 1790] | > 15
33 | CC(C)N1CCN(c2c(F)cc3c(=O)c(C(=O)NCCCN4CCOCC4)cn4c3c2Oc2ccc(Cl)cc2-4)CC1 [compound 1791] | > 15
34 | CC(C)N1CCN(c2c(F)cc3c(=O)c(C(=O)NCCCN4CCOCC4)cn4c3c2Oc2cc(Cl)ccc2-4)CC1 [compound 1792] | > 15
35 | N#Cc1ccc2c(c1)-n1cc(C(=O)NCCN3CCOCC3)c(=O)c3cc(F)c(N4CCC(N)C4)c(c31)O2 (stereo not drawn) [compound 1793] | 5.3
36 | O=C(NCCN1CCCC1)c1cn2c3c(c(NCC4CCCO4)c(F)cc3c1=O)Oc1cc(Cl)ccc1-2 (stereo not drawn) [compound 1794] | > 15
37 | CC(C)N1CCN(c2c(F)cc3c(=O)c(C(=O)NCCN4CCCC4)cn4c3c2Oc2ccc(C#N)cc2-4)CC1 [compound 1796] | > 15
38 | CC(C)N1CCN(c2c(F)cc3c(=O)c(C(=O)NCCN4CCCC4)cn4c3c2Oc2cc(Cl)ccc2-4)CC1 [compound 1797] | 8
39 | CC(C)N1CCN(c2c(F)cc3c(=O)c(C(=O)NCCN4CCCC4)cn4c3c2Oc2ccc(Cl)cc2-4)CC1 [compound 1798] | 6.6
40 | O=C(NCCN1CCCC1)c1cn2c3c(c(NCC4CCCO4)c(F)cc3c1=O)Oc1ccc(Cl)cc1-2 (stereo not drawn) [compound 1799] | > 15
41 | CC(C)N1CCN(c2c(F)cc3c(=O)c(C(=O)NCCN4CCCC4)cn4c3c2Oc2cccnc2-4)CC1 [compound 1801] | 8.2
42 | CCN(CC)CCCCNC(=O)c1cn2c3c(c(N4CCC(c5cnccn5)C4)c(F)cc3c1=O)Oc1ccc(Cl)cc1-2 (stereo not drawn) [compound 1802] | 4
43 | CCN(CC)CCCCNC(=O)c1cn2c3c(c(N4CCC(N)C4)c(F)cc3c1=O)Oc1ccc(Cl)cc1-2 (stereo not drawn) [compound 1803] | 3
44 | CC(C)N1CCN(c2c(F)cc3c(=O)c(C(=O)NCCN4CCOCC4)cn4c3c2Oc2ccc(Cl)cc2-4)CC1 [compound 1804] | > 15
45 | CC(C)N1CCN(c2c(F)cc3c(=O)c(C(=O)NCCN4CCOCC4)cn4c3c2Oc2cc(Cl)ccc2-4)CC1 [compound 1805] | > 15
46 | CCOC(=O)c1cn2c3c(c(N4CCN(C(C)=O)CC4)c(F)cc3c1=O)Oc1cc(Cl)ccc1-2 [compound 1806] | > 15
47 | CC(=O)N1CCN(c2c(F)cc3c(=O)c(C(=O)NCCC4CCCN4C)cn4c3c2Oc2cc(Cl)ccc2-4)CC1 (stereo not drawn) [compound 1807] | > 15
48 | CN1CCCC1CCNC(=O)c1cn2c3c(c(NCCCNC(=O)OC(C)(C)C)c(F)cc3c1=O)Oc1cc(Cl)ccc1-2 (stereo not drawn) [compound 1808] | > 15
